Test results published in patent US11602521B2, “N,N-dimethyltryptamine compositions and methods” (ATAI Life Sciences AG, priority 2021, dated 2023).
Like-named read-outs stand apart in the source and are kept apart here.

Test: DMT plasma concentration after a single SC injection of DMT succinate to rats
Type: in vivo
Settings: for DMT plasma concentration: rats; for AUC0-24 hr/Dose / AUCTlast/Dose / Cmax/Dose / Tlast / AUC(0-t) / Tmax: Day 1, rats; for Cmax: both sexes, Day 1, rats males and females combined; for Cmax / AUC(0-t) / Tmax: rat, plasma; for AUC(0-t): sc
Source text: Example 2: Study of DMT Succinate Administered Subcutaneously

[1] = 5 mg/kg DMT succinate single SC
[2] = 10 mg/kg DMT succinate single SC

CN(C)CCc1c[nH]c2ccccc12 [DMT, N,N-dimethyltryptamine]
DMT plasma concentration (5 mg/kg DMT succinate SC, Time 0.5 h): 228 | DMT plasma concentration (5 mg/kg DMT succinate SC, Time 1 h): 202 | DMT plasma concentration (5 mg/kg DMT succinate SC, Time 2 h): 27.1 | DMT plasma concentration (5 mg/kg DMT succinate SC, Time 4 h): 0 | DMT plasma concentration (5 mg/kg DMT succinate SC, Time 8 h): 0 | DMT plasma concentration (5 mg/kg DMT succinate SC, Time 12 h): 0 | DMT plasma concentration (5 mg/kg DMT succinate SC, Time 24 h): 0 | AUC0-24 hr/Dose [1]: 61.1 kg·ng·h/mL/mg | AUCTlast/Dose [1]: 55.7 kg·ng·h/mL/mg | Cmax/Dose [1]: 45.5 kg·ng/mL/mg | Tlast [1]: 2 h | DMT plasma concentration (10 mg/kg DMT succinate SC, Time 0.5 h): 836 | DMT plasma concentration (10 mg/kg DMT succinate SC, Time 1 h): 1260 | DMT plasma concentration (10 mg/kg DMT succinate SC, Time 2 h): 1170 | DMT plasma concentration (10 mg/kg DMT succinate SC, Time 4 h): 149 | DMT plasma concentration (10 mg/kg DMT succinate SC, Time 8 h): 0.707 | DMT plasma concentration (10 mg/kg DMT succinate SC, Time 12 h): 0 | DMT plasma concentration (10 mg/kg DMT succinate SC, Time 24 h): 0 | AUC0-24 hr/Dose [2]: 143 kg·ng·h/mL/mg | AUCTlast/Dose [2]: 142 kg·ng·h/mL/mg | Cmax/Dose [2]: 50.5 kg·ng/mL/mg | Tlast [2]: 8 h | Cmax [1]: 228 ng/mL | Cmax [2]: 1260 ng/mL | AUC(0-t) (5 mg/kg, 5 mg/kg DMT succinate single SC, read-out: AUC0-24 hr): 306 ng·h/mL | AUC(0-t) (5 mg/kg, 5 mg/kg DMT succinate single SC, read-out: AUCTlast): 278 ng·h/mL | AUC(0-t) (10 mg/kg, 10 mg/kg DMT succinate single SC, read-out: AUC0-24 hr): 3560 ng·h/mL | AUC(0-t) (10 mg/kg, 10 mg/kg DMT succinate single SC, read-out: AUCTlast): 3560 ng·h/mL | Tmax [1]: 30 min | Tmax [2]: 60 min
